Reference: publication PMC11012721 (International Journal of Molecular Sciences, 2024)

What was measured:
mice [1] = assay: passive avoidance test, SCOP-induced long-term memory impairment; format: in vivo
Experimental: (§1) The passive avoidance test in mice is used to assess fear-related learning and memory. The apparatus consists of an acrylic box with two chambers: white (10 × 13 × 15 cm) and black (25 × 20 × 15 cm). During the experiment, the white chamber is illuminated with a bright light (8 W). The black chamber, which is equipped with an electric grid base, is connected to the illuminated chamber.
(§2) A pre-test (training) was carried out before the experiments. Each mouse was placed individually in the illuminated chamber of the device and allowed to explore it within 30 s. The guillotine door separating the two chambers was then opened. The mouse was then allowed to enter the black chamber, where it was immediately treated with an electric shock (0.2 mA) for 2 s. The latency to enter the black chamber was recorded (TL1). During the retention trial, which was performed 24 h after the pre-test, the same mouse was again placed in the lighted chamber of the device. The time required to enter the black chamber was recorded (TL2). In contrast to the pre-test, no foot shock was administered this time. […] The index of latency (IL) was calculated as follows:IL = (TL2 − TL1)/TL1(1)
(§3) After the 30 min delay, the pre-test was performed.

mice [2] = assay: passive avoidance test, LPS-induced long-term memory impairment; format: in vivo; details: LPS 2.5 mg/kg ip
Experimental: as §1, §2, §3

[3] = test system: phosphatidylcholine PC(22:4(7Z, 10Z, 13Z, 16Z)/16:0) level; assay: phosphatidylcholine level in brain samples, pathway analysis (Mass Profiler Professional, KEGG); format: in vivo, mice; details: for effect on phosphatidylcholine level in brains: LPS model
Experimental: (§4) The liquid chromatograph consisted of a degasser, a binary pump, a column oven, an autosampler and the high-resolution mass detector QTOF-MS/MS with an electrospray ionization source. The chromatographic column Zorbax Eclipse Plus (Agilent Technologies, CA, USA) (150 mm × 2.1 mm, 3.2 um, RP-18) was used to separate the metabolites of the injected matrix in the following gradient of acetonitrile with 0.1% formic acid (solvent B) in the 0.1% aqueous solution of formic acid (solvent A): 0 min—2% B, 2 min—10% B, 6 min—40% B, 35–37 min—95% B and 37.5 min—2% B. The analysis time was set to 43 min, the follow-up time to 5 min, the flow rate to 0.2 mL/min and the injection volume to 10 μL. The detailed settings of the mass spectrometer were as follows: a capillary voltage of 3000 V, a skimmer voltage of 65 V, a mass range of 100–1200 m/z, a collision energy of 10 and 20 V, a nebulizer pressure of 30 psig, a gas flow rate of 12 L/min and gas and sheath gas temperatures of 250 and 325 °C. The Mass Hunter Workstation (version B.10.00) from Agilent Technologies was used to record and process the data obtained. […] For each of the concentrations, the average values of the content of the tested substance in the respective organ were calculated. The standard deviation (SD) values were calculated in each case. The recorded mass chromatograms for the brain samples (injection with saline: n = 2, injection with LPS: n = 3 and 25 mg/kg b.w. with LPS injection: n = 3) were analyzed with the Mass Profiler Professional Program 15.1 from Agilent Technologies (Santa Clara, CA, USA) with a built-in pathways analysis module that uses the Kyoto Encyclopedia of Genes and Genomes (KEGG) database to detect the effects of the injected substance on molecular mechanisms. First, the raw data from the recorded chromatograms were exported in csv format and analyzed in the program. […] Of the 517 entities analyzed, eleven differentiating m/z signals were detected in the samples, with p < 0.05 and a fold change of 2 settings. One of the differentiating signals was phosphatydylcholine, whose behavior in the tested samples was analyzed with the pathways module.

[4] = parameters: method as in Zhang et al. [60]; details: ref Zhang et al. [60]; cited from earlier work
AChE = details: previous studies; cited from earlier work
[5] = HPLC-ESI-QTOF-MS/MS determination of astragaloside IV in organs post mortem; format: in vivo, mice; details: for content in kidney (Av) / content in liver (Av) / content in spleen (Av) / content in brain (Av): 1 h after injection, n = 3
Experimental: They were then homogenized in an Eppendorff plastic vial kept in ice. The homogenates of the organs were vortexed with 200 µL of 50% ethanol for 10 min. The Eppendorff vials were centrifuged at 3500 rpm for 5 min and the supernatant was filtered through a nylon syringe filter with a diameter of 0.22 µm into the autosampler vials with the glass inserts. […] Due to the small size and mass of brains, AIV was quantified in these organs after addition of the reference compound (Sigma Aldrich, St. Louis, MO, USA) to the samples. […] The peak areas of astragaloside IV in the brains were compared with the blank solution of the standard compound. The levels of astragaloside IV in the other organs were measured without the presence of the reference compound.
as §4

mice [6] = assay: locomotor activity test (photoresistance actimeters); details: 6, 12.5 or 25 mg/kg ip; 30 min measurement; p > 0.05
[7] = AIV 6, 12.5 or 25 mg/kg ip, p > 0.05 vs LPS
[8] = AIV smaller doses (6, 12.5 mg/kg ip), p > 0.05

Compound: CN1[C@@H]2C[C@@H](OC(=O)[C@H](CO)c3ccccc3)C[C@H]1[C@@H]1O[C@@H]12 [SCOP, Scopolamine, reference compound]
- effect on memory acquisition and consolidation vs control mice (mice [1]; SCOP 1 mg/kg ip, p < 0.001): impaired both memory acquisition and consolidation

Compound: lipopolysaccharide [LPS]
- effect on memory acquisition and consolidation vs control mice (mice [2]; p < 0.001): impaired both memory acquisition and consolidation
- effect on phosphatidylcholine level in brains [3]: decrease the level of phosphatidylcholines
- Kennedy Pathway log2 (phosphatidylcholine level) ([3]; brain samples, LPS group): 0
- One-Carbon Metabolism log2 (phosphatidylcholine level) ([3]; brain samples, LPS group): 0

Compound: CC(C)(O)[C@@H]1CC[C@](C)([C@H]2[C@@H](O)C[C@@]3(C)[C@@H]4C[C@H](O[C@@H]5O[C@H](CO)[C@@H](O)[C@H](O)[C@H]5O)[C@H]5C(C)(C)[C@@H](O[C@@H]6OC[C@@H](O)[C@H](O)[C@H]6O)CC[C@@]56C[C@@]46CC[C@]23C)O1 [AIV, astragaloside IV]
- attenuation of LPS-impaired acquisition of long-term memory (mice [2]; [7]): did not attenuate
- attenuation of LPS-impaired consolidation of long-term memory (mice [2]; [7]): did not attenuate
- attenuation of SCOP-impaired acquisition of long-term memory (mice [1]; AIV 25 mg/kg ip before SCOP 1 mg/kg ip, p < 0.001 vs SCOP): attenuated
- attenuation of SCOP-impaired consolidation of long-term memory (mice [1]; AIV 25 mg/kg ip, SCOP 1 mg/kg ip, p < 0.01 vs SCOP): attenuated
- attenuation of SCOP-impaired acquisition of long-term memory (mice [1]; [8]): ineffective
- attenuation of SCOP-impaired consolidation of long-term memory (mice [1]; [8]): ineffective
- effect of AIV itself on acquisition of long-term memory (mice [1]; all doses tested (6, 12.5, 25 mg/kg ip), no SCOP, p < 0.001 vs control): improved acquisition
- route of excretion [4]: excreted slowly via hepatic clearance
- AChE inhibition (AChE): inhibitor of AChE
- effect on phosphatidylcholine level in brains ([3]; astragaloside IV 25 mg/kg b.w. ip): restored the level of the compound to that of saline administration
- content in kidney (Av) ([5]; 6 mg/kg ip): 0.0174 mg/Organ
- content in liver (Av) ([5]; 6 mg/kg ip): 0.00411 mg/Organ
- content in spleen (Av) ([5]; 6 mg/kg ip): 0.03766 mg/Organ
- content in brain (Av) ([5]; 12.5 mg/kg ip): 0.00012 mg/Organ
- content in kidney (Av) ([5]; 12.5 mg/kg ip): 0.03882 mg/Organ
- content in liver (Av) ([5]; 12.5 mg/kg ip): 0.01084 mg/Organ
- content in spleen (Av) ([5]; 12.5 mg/kg ip): 0.04919 mg/Organ
- content in brain (Av) ([5]; 25 mg/kg ip): 0.00023 mg/Organ
- content in kidney (Av) ([5]; 25 mg/kg ip): 0.08892 mg/Organ
- content in liver (Av) ([5]; 25 mg/kg ip): 0.02316 mg/Organ
- content in spleen (Av) ([5]; 25 mg/kg ip): 0.06844 mg/Organ
- dose dependence of concentration in soft organ tissues ([5]; 6, 12.5, 25 mg/kg ip): dose-dependent
- rank order of content in soft organs ([5]; ip, mice, post mortem): highest content of the saponin was found in the kidneys, then in the spleen, liver and brain
- effect on locomotor activity (mice [6]): no effect
